In ChEMBL document CHEMBL3046546, “Synthesis and biological evaluation of a novel anti-malarial lead” (Med Chem Res, 2011) one finds IC90, IC50 and Activity data, which are given here for four molecules.

What all share (format): functional, organism-based
In assay [1] the test system is Leishmania donovani. Nature of the assay: Antileishmanial activity against promastigotes of Leishmania donovani expressing firefly luciferase after 72 hr by luciferase assay.
The subject of assay [2] is Plasmodium falciparum. The experiment in a line: Antimalarial activity against chloroquine-resistant Plasmodium falciparum W2 after 72 hr by […] assay. The settings on record: W2, 72 h.
Assay [3] has as its system Plasmodium falciparum. The experiment in a line: Antimalarial activity against chloroquine-sensitive Plasmodium falciparum D6 after 72 hr by […] assay. The conditions noted are these: D6, 72 h.
Assay [4] deals with Aspergillus fumigatus. The experiment in a line: Antimicrobial activity against Aspergillus fumigatus.
Assay [5] deals with Staphylococcus aureus. Nature of the assay: Antimicrobial activity against methicillin-resistant Staphylococcus aureus.
For assay [6], the system named is Mycobacterium intracellulare. The experiment in a line: Antimicrobial activity against Mycobacterium intracellulare.
Assay [7] relates to Escherichia coli. The experiment in a line: Antimicrobial activity against Escherichia coli.
The test system of assay [8] is Cryptococcus neoformans. The experiment in a line: Antimicrobial activity against Cryptococcus neoformans.
The subject of assay [9] is Candida albicans. The experiment in a line: Antimicrobial activity against Candida albicans.

Calls of active or inactive are those of the source. The calls are words filed in the database; no cut-off is given here.

`C[C@@H]1[C@H](O)[C@@H](C)/C=C/C=C/C=C/C=C/C=C/C=C/C=C/[C@H](O[C@@H]2O[C@H](C)[C@@H](O)[C@H](N)[C@@H]2O)C[C@@H]2O[C@](O)(C[C@@H](O)C[C@@H](O)[C@H](O)CC[C@@H](O)C[C@@H](O)CC(=O)O[C@H]1C)C[C@H](O)[C@H]2C(=O)O` [AMPHOTERICIN B] showed an IC90 in assay [1] of 2.5 µM.
As to `CCc1ccc(Cc2cc(N)cc(N)c2)cc1`, in assay [1], the IC50 was 69 µM and the IC90 came out at 134 µM.
`CCOC(=O)Cc1ccc(Cc2cn(Cc3ccccc3)cn2)cc1`: the IC50 in [2] amounted to 6.3 µM; in assay [3], 8 µM.
Consider `CCOC(=O)C(=O)Nc1cc(Cc2ccc(CC)cc2)cc(NC(=O)Cc2ccc(Cc3cn(Cc4ccccc4)cn3)cc2)c1`, for which the result in assay [4], in assay [5], in assay [6], in assay [7], in assay [8] and in assay [9] was inactive. Moreover, the IC50 in assay [1] was found to be 41 µM; in [2] it was 5.5 µM; in assay [3] it was 6.5 µM.

A word on the IC90: it is the point of the concentration-response curve where the effect stands at 90%. Read a high IC90 as weaker potency. In general, IC50 refers to the concentration needed to halve the response being measured. A higher IC50 goes with lower potency.
